Literature values as cited in patent US9585896B2, “Compositions comprising omega-3 fatty acids and vitamin D for psoriasis, and methods and uses thereof” (PRONOVA BIOPHARMA NORGE AS, priority 2012, dated 2017).

Test system: patients with psoriasis
Conditions: over a 12-week period, versus high-dose etanercept

In the case of “Ustekinumab: FDA-approved IL-12/IL-23 blocker targeting the common domain p40”, the “efficacy in patients with psoriasis” value is listed as “higher efficacy than high-dose etanercept”.
